Converted amounts (≈) assume the structure as drawn.
What was measured:
Type in all cases: functional
[1] = system: Cavia porcellus; test: Percent inhibition of platelet aggregation following oral administration to guinea pigs at a dose of 1 mg/kg
[2] = system: Cavia porcellus; test: Percent inhibition of platelet aggregation following oral administration to guinea pigs at a dose of 5 mg/kg
[3] = organism: Homo sapiens; test: In vitro inhibition of collagen-induced platelet aggregation in human platelet rich plasma
[4] = system: Cavia porcellus; test: Percent inhibition of platelet aggregation following oral administration to guinea pigs at a dose of 10 mg/kg
[5] = organism: Cavia porcellus; test: In vitro inhibition of collagen-induced platelet aggregation in guinea pig platelet rich plasma
[6] = system: Cavia porcellus; test: Percent inhibition of platelet aggregation at 16 hours following oral administration to guinea pigs at 5 mg/kg
[7] = system: Cavia porcellus; test: Percent inhibition of platelet aggregation at 2 hours following oral administration to guinea pigs at 5 mg/kg
[8] = system: Cavia porcellus; test: Percent inhibition of platelet aggregation at 24 hours following oral administration to guinea pigs at 5 mg/kg
[9] = system: Cavia porcellus; test: Percent inhibition of platelet aggregation at 4 hours following oral administration to guinea pigs at 5 mg/kg
[10] = system: Cavia porcellus; test: Percent inhibition of platelet aggregation at 8 hours following oral administration to guinea pigs at 5 mg/kg
[11] = system: Cavia porcellus; test: Percent inhibition of platelet aggregation following oral administration to guinea pigs at a dose of 0.1 mg/kg
[12] = system: Cavia porcellus; test: Percent inhibition of platelet aggregation following oral administration to guinea pigs at a dose of 0.5 mg/kg
[13] = system: Cavia porcellus; test: Percent inhibition of platelet aggregation at 0 hours following oral administration to guinea pigs at 5 mg/kg
[14] = system: Cavia porcellus; test: Percent inhibition of platelet aggregation at 12 hours following oral administration to guinea pigs at 5 mg/kg

`COc1ccc(-c2nc(CC(N)=O)sc2-c2ccc(OC)cc2)cc1` showed an inhibition in vivo at 1 mg/kg [1] of 39%, an inhibition in vivo at 5 mg/kg [2] of 96% and an IC50 [3] of 3.2 ng/mL (≈ 0.00903 µM). For the same compound, the inhibition in vivo at 10 mg/kg [4] was 100%.

Work on `COc1ccc(-c2nc(C(C)(C)CO)sc2-c2ccc(OC)cc2)cc1` yielded an IC50 [5] of 0.01 µg/mL (≈ 0.0271 µM) and an IC50 [3] of 3.2 ng/mL (≈ 0.00866 µM).

`COc1ccc(-c2nc(CC(=O)[O-])sc2-c2ccc(OC)cc2)cc1.[Li+]` was tested, and the IC50 [3] was 32 ng/mL.

`COc1ccc(-c2nc(CCO)sc2-c2ccc(OC)cc2)cc1` gave an IC50 [5] of 0.0032 µg/mL (≈ 0.00937 µM), an inhibition in vivo at 1 mg/kg [1] of 9% and an inhibition in vivo at 5 mg/kg [2] of 79%. For the same compound, the IC50 [3] was 0.32 ng/mL (≈ 0.000937 µM) and the inhibition in vivo at 10 mg/kg [4] was 100%.

For `FC(F)(F)c1nc(-c2ccc(Cl)cc2)c(-c2ccc(Cl)cc2)s1`, the IC50 [3] was 32 ng/mL (≈ 0.0855 µM).

`FC(F)(F)c1nc(-c2ccccc2)c(-c2ccccc2)s1` showed an IC50 [3] of 320 ng/mL (≈ 1.05 µM).

Work on `COC(=O)Cc1nc(-c2ccc(OC)cc2)c(-c2ccc(OC)cc2)s1` yielded an IC50 [3] of 0.1 ng/mL (≈ 0.000271 µM).

In the case of `COc1ccc(-c2nc(C)sc2-c2ccc(OC)cc2)cc1`, the IC50 [3] is reported as 0.32 ng/mL (≈ 0.00103 µM).

Work on `COc1ccc(-c2ncsc2-c2ccc(OC)cc2)cc1` yielded an IC50 [3] of 32 ng/mL (≈ 0.108 µM).

With `COc1ccc(-c2nc(C(C)C)sc2-c2ccc(OC)cc2)cc1` the IC50 [5] was 0.01 µg/mL (≈ 0.0295 µM), the inhibition in vivo at 1 mg/kg [1] was 6% and the inhibition in vivo at 5 mg/kg [2] was 85%. It also gave an IC50 [3] of 3.2 ng/mL (≈ 0.00943 µM) and an inhibition in vivo at 10 mg/kg [4] of 100%.

In the case of `COC(=O)C(C)(C)c1nc(-c2ccc(OC)cc2)c(-c2ccc(OC)cc2)s1`, the IC50 [5] is reported as 0.01 µg/mL (≈ 0.0252 µM), the inhibition in vivo at 1 mg/kg [1] is reported as 27% and the inhibition in vivo at 5 mg/kg [2] is reported as 100%. For the same compound, the IC50 [3] was 3.2 ng/mL (≈ 0.00805 µM) and the inhibition in vivo at 10 mg/kg [4] was 100%.

With `CC(=O)Oc1ccccc1C(=O)O` [ASPIRIN] the IC50 [3] was 10000 ng/mL (≈ 55.5 µM).

`CC(C(=O)O)c1ccc(-c2ccccc2)c(F)c1` (centres undefined) [FLURBIPROFEN] showed an IC50 [5] of 0.32 µg/mL (≈ 1.31 µM) and an IC50 [3] of 320 ng/mL (≈ 1.31 µM).

For `COc1ccc(-c2nc(C(F)(F)F)sc2-c2ccc(OC)cc2)cc1` [ITAZIGREL], the IC50 [5] was 0.01 µg/mL (≈ 0.0274 µM), the inhibition in vivo at 5 mg/kg [6] was 16.2% and the inhibition in vivo at 5 mg/kg [7] was 97%. The inhibition in vivo at 5 mg/kg [8] was 10.3%, the inhibition in vivo at 5 mg/kg [9] was 68.5% and the inhibition in vivo at 5 mg/kg [10] was 93.2%. It also gave an inhibition in vivo at 0.1 mg/kg [11] of 6%, an inhibition in vivo at 0.5 mg/kg [12] of 68.5% and an inhibition in vivo at 1 mg/kg [1] of 83%. It also gave an inhibition in vivo at 5 mg/kg [2] of 100%, an inhibition in vivo at 5 mg/kg [13] of 0% and an inhibition in vivo at 5 mg/kg [14] of 48.7%. For the same compound, the IC50 [3] was 1 ng/mL (≈ 0.00274 µM) and the inhibition in vivo at 10 mg/kg [4] was 100%.

— ChEMBL document CHEMBL1121768, “Synthesis and platelet aggregation inhibitory activity of 4,5-bis(aryl)-2-substituted-thiazoles” (J Med Chem, 1981)
